Results published in patent publication US20040106198A1, “Inhibition of peptide cleavage in plants” (LARGE SCALE BIOLOGY CORPORATION, priority 2002, published 2004).
Numbered stars: 1 amine (or outer) side, 2 acyl side, 3 side chain; on linkers, the order of the positions; unused ones are H or OH. Square brackets hold non-standard residues; d marks the D form. Peptide text beside a SMILES is read from it. * marks the point of attachment. Sta = CC(C)C[C@H](N)[C@@H](O)CC(=O)O; pNA = O=[N+]([O-])c1ccc(N*)cc1; Suc = O=C(CCC(=O)[*:2])[*:1]; Isovaleryl = CC(C)CC(=O)*; Cbz = O=C(OCc1ccccc1)*; CK = not defined here

Test system: CD34+
Test: CD34+ proliferation assays
Assay type: cell-based
Settings: proteins purified from plants
Protocol: The vectors were used to inoculate plant leaves of different sets of plants as described in the examples above. Both plant homogenates and interstitial fluid were extracted as described above. hSCF and pSCF were each purified from 27 plants to yield 0.85 mg (˜15 mg/kg) and 2.5 mg (˜45 mg/kg) of protein respectively.

**Q.** “hSCF: human Stem Cell growth Factor expressed in plants from GENEWARE vector” was tested. Which “biological activity in CD34+ proliferation assays” value did it give?
**A.** Its value is “biologically active”.

Test system: plant protease
Test: In vitro stability of recombinant hGH in IF with protease inhibitors (Western)
Assay type: biochemical, N. benthamiana
Settings: 24 hours at 24° C. followed by 120 hours at 5° C.; anti-hGH Western
Protocol: FIG. 1 depicts the in vitro stability of expressed recombinant human growth hormone protein (hereafter “hGH”) in the interstitial fluid (hereafter “IF”) following the addition of protease inhibitors. Recombinant hGH protein was expressed in N. benthamiana using a tobacco mosaic virus (hereafter “TMV”) vector expression system. IF was prepared from plant leaves at 9 days post-inoculation and incubated for 24 hours at 24° C. followed by 120 hours at 5° C. with or without the addition of protease inhibitors. Fifteen microliters of the IF extract was separated by SDS-PAGE and the gel prepared for Western analysis. The levels of hGH protein in the IF of the time zero control (lane a), in absence of inhibitor (lane b), and in the presence of protease inhibitors chymostatin (lane c) and PI-I (lane d), were detected using anti-hGH antibody.
When a plant viral vector expression system (Kumagai et al., 1995; McCormick et al., 1999) was utilized to express the secreted, mammalian recombinant protein, hGH, significant degradation of the target protein was observed. […]
Aliquots of the plant IF fraction were separated by SDS-PAGE and levels of hGH protein were detected by immunoblot analysis using anti-hGH polyclonal antibody (Sigma, St. Louis, Mo.). […]
At zero time, prior to the addition of any inhibitors, both full length and hGH cleavage products were detected (FIG. 1). […]

**Q.** `CC(C)C[C@H](NC(=O)[C@@H](NC(=O)N[C@@H](Cc1ccccc1)C(=O)O)[C@@H]1CCN=C(N)N1)C(=O)N[C@H](C=O)Cc1ccccc1` [Chymostatin] was tested. Which “inhibition of degradation of hGH protein in IF extract” value did it give?
**A.** Its value is “inhibition of further degradation of the intact hGH protein was observed”.

Test system: Nicotianalisin
Test: In situ Zymogram gelatin gel assay of partially purified protease
Assay type: biochemical, N. benthamiana
Settings: 2 mM PMSF for 1 hr at 24° C.; partially purified fraction
Protocol: FIG. 2 depicts the inhibition of Nicotianalisin by PMSF protease inhibitor using Zymogram gelatin gel analysis. Plant extracts containing Nicotianalisin activity were partially purified by ion-exchange chromatography at pH 5.2, and fractions with peak protease activity were treated with or without 2 mM PMSF for 1 hr at 24° C. Following treatment, aliquots were removed and inhibitory activity assessed on Zymogram gels.
The in situ protease gel assay was carried out in pre-cast 10% Zymogram gels (Invitrogen, Carlsbad, Calif.) as per manufacturer's protocols.
Following the initial observation that the plant protease activity was inhibited by both chymostatin and potato PI-I (FIG. 1), experiments were initiated to partially purify the protease from N. benthamiana leaves. Plants were grown and IF extracts were prepared as described above. The IF was filtered through a 0.8μ Sartorius GF membrane to remove most of the Ribulose-1,5-bisphosphate carboxylase/oxygenase (Rubisco) and green pigments. The diafiltered extract was separated further by SP sepharose (Pharmacia) ion exchange chromatography at pH 5.2.

**Q.** Which “reduction of protease activity on Zymogram gelatin gel” value does the source give for `O=S(=O)(F)Cc1ccccc1` [PMSF, phenylmethanesulfonyl fluoride] here?
**A.** Its value is “significant reduction of protease activity”.

Test system: Nicotianalisin
Test: Protease inhibitor study in plant interstitial fluid (IF), N-Suc-AAPL-p-NA hydrolysis
Assay type: biochemical, N. benthamiana
Settings: not given
Protocol: To further classify the protease activity in the plant IF extract, protease inhibitor studies were performed. Standard inhibitors from different classes of proteases were used. An aliquot of the plant IF was incubated with each inhibitor for 30 min at 24° C., and the free enzyme was incubated under the same conditions without the inhibitor to serve as the control. The protease activity after the inhibition was measured and compared to the control.
To further characterize the plant proteolytic activity, experiments were initiated to partially purify the plant protease. In order to purify the protease, enzyme assays were developed and utilized. Proteolytic activity was monitored by the hydrolysis of a synthetic substrate, hydrolysis of a protein substrate and/or by an in situ gel procedure. […] The absorbance of the p-nitroaniline (p-NA) produced was measured at 410 nm (Erlanger, Kokowsky, and Cohen, 1961; Nakajima et al., 1979). The activity unit was defined as the amount of the enzyme capable of producing 1 nanomole of p-NA per min under the conditions of the experiment with an absorption coefficient of […] (Erlanger, Kokowsky, and Cohen, 1961; Nakajima et al., 1979). The rate of hydrolysis of N-Succinyl-Ala-Ala-Pro-Phe-thiobenzylester SEQ ID NO: in 10% DMSO and 4,4′-dithiodipyridine was monitored at […] using an extinction coefficient of 19800 cm^−1 M^−1 (Barrett and Kirschke, 1981). General proteolytic activity was measured with 2.0% azocasein or 2.0% azoalbumin and Fluorescein Isothiocyanate Casein (FITC-casein; (Twining, 1984)). The reaction was started by addition of 10 μl of protease solution to 70 μl of reaction mixture (100 mM buffer Tris-HCl pH 7.0 containing 0.04% FTC-casein, 0.5 mM DDT, 2 mM CaCl2) and incubation for 1 hr at 37° C. The reaction was stopped by addition of 80 μl of 10% TCA and incubation for 15 min at −20° C. The mixture was centrifuged for 10 min at 10,000×g at 4° C. 10 μl of the supernatant solution was added to 150 μl Tris-HCl (0.5 M, pH 8.5), and fluorescence was measured at an excitation wavelength of 490 nm and an emission wavelength of 525 nm using a fluorescence plate reader ((Erlanger, Kokowsky, and Cohen, 1961; Nakajima et al., 1979), Molecular Devices).

**Q.** For `Cc1ccc(S(=O)(=O)N[C@@H](CCCCN)C(=O)CCl)cc1` [TLCK], which “% Inhibition” value is on record?
**A.** Its value is 0%.

Same assay, conditions: IF from viral vector-infected plants incubated with inhibitor 30 min at 24° C.; 0.3 mM N-Suc-AAPL-p-NA

**Q.** How did the “% Inhibition” value turn out when `O=C(O)CN(CCN(CC(=O)O)CC(=O)O)CC(=O)O` [EDTA] was run?
**A.** Its value is 5%.

**Q.** How did the “% Inhibition” value turn out when `CC(C)C[C@@H](N)[C@H](O)C(=O)N[C@H](C(=O)N[C@H](C(=O)N[C@@H](CC(=O)O)C(=O)O)C(C)C)C(C)C` [Amastatin] was run?
**A.** The value was 5%.

**Q.** How did the “% Inhibition” value turn out when `CC(C)C[C@H](NC(=O)[C@H]1O[C@@H]1C(=O)O)C(=O)NCCCCN=C(N)N` [E-64] was run?
**A.** The value was 5%.

**Q.** Which “% Inhibition” value does the source give for `c1cnc2c(c1)ccc1cccnc12` [1-10 Phenantrolin] here?
**A.** Its value is 11%.

**Q.** `Cc1ccc(S(=O)(=O)N[C@@H](Cc2ccccc2)C(=O)CCl)cc1` [TPCK] was tested. Which “% Inhibition” value did it give?
**A.** Its value is 38%.

**Q.** For `CC(C)CC(=O)N[C@H](C(=O)N[C@H](C(=O)N[C@@H](CC(C)C)[C@@H](O)CC(=O)N[C@@H](C)C(=O)N[C@@H](CC(C)C)[C@@H](O)CC(=O)O)C(C)C)C(C)C` [Pepstatin A] (Isovaleryl-VV[Sta]A[Sta]-OH), which “% Inhibition” value is on record?
**A.** Its value is 6%.

**Q.** `O=c1oc(Cl)c(Cl)c2ccccc12` [3-4 DCI] was tested. Which “% Inhibition” value did it give?
**A.** The value was 100%.

**Q.** How did the “% Inhibition” value turn out when `O=S(=O)(F)Cc1ccccc1` [PMSF, phenylmethanesulfonyl fluoride] was run?
**A.** The value was 100%.

**Q.** How did the “% Inhibition” value turn out when Aprotinin was run?
**A.** Its value is 46%.

**Q.** With “N-CBZ-GGF-CK: irreversible serine protease inhibitor, active site titrant (Cbz-Gly-Gly-Phe-{CK}; reading uncertain; also: printed as N-CBZ-GGF-CK)” as the compound, how does the “% Inhibition” value read?
**A.** The value was 70%.

**Q.** `CC(C)C[C@H](NC(=O)N[C@H](C(=O)N[C@@H](CCC(N)=O)C(=O)N[C@@H](C)C=O)[C@@H]1CCNC(=N)N1)C(=O)O` [Elastinal] was tested. Which “% Inhibition” value did it give?
**A.** Its value is 41%.

**Q.** For `CC(C)C[C@H](NC(=O)[C@@H](NC(=O)N[C@@H](Cc1ccccc1)C(=O)O)[C@@H]1CCN=C(N)N1)C(=O)N[C@H](C=O)Cc1ccccc1` [Chymostatin], which “% Inhibition” value is on record?
**A.** The value was 100%.

**Q.** `CC(=O)N[C@@H](CC(C)C)C(=O)N[C@@H](CC(C)C)C(=O)N[C@H](C=O)CCCNC(=N)N` [Leupeptin] was tested. Which “% Inhibition” value did it give?
**A.** The value was 18%.

Test system: Nicotianalisin
Test: Hydrolysis of synthetic 4-nitroanilide peptide substrates by purified protease
Settings: not given

**Q.** “N-Succinyl-Alanine-Alanine-Proline-Phenylalanine-para-nitroanilide [N-Suc-AAPF-pNA]” was tested. Which “preferential cleavage of synthetic peptide substrates” value (“preferential cleavage” below) did it give?
**A.** The value was “preferentially cleaved”.

**Q.** How did the “preferential cleavage” value turn out when “N-Succinyl-Alanine-Alanine-Proline-Leucine-para-nitroanilide [N-Suc-AAPL-pNA]” was run?
**A.** The value was “preferentially cleaved”.

**Q.** For “N-Suc-AAPM-pNA: synthetic 4-nitroanilide peptide substrate (SMILES CSCC[C@H](NC(=O)[C@@H]1CCCN1C(=O)[C@H](C)NC(=O)[C@H](C)NC(=O)CCC(=O)O)C(=O)Nc1ccc([N+](=O)[O-])cc1)”, which “preferential cleavage” value is on record?
**A.** The value was “preferentially cleaved”.
